Our source for the IC50 values is article PMC11012793, “Mulberry Leaf Compounds and Gut Microbiota in Alzheimer’s Disease and Diabetes: A Study Using Network Pharmacology, Molecular Dynamics Simulation, and Cellular Assays” (International Journal of Molecular Sciences, 2024).

The target in the experiment is T1, protein tyrosine phosphatase 1B (PTP1B) (Homo sapiens, UniProt P18031).
T1 construct: gene PTPN1; catalytic domain (Met1-Glu298) of PTP1B (ΔPTP1B)
T1 sequence (P18031 1-298): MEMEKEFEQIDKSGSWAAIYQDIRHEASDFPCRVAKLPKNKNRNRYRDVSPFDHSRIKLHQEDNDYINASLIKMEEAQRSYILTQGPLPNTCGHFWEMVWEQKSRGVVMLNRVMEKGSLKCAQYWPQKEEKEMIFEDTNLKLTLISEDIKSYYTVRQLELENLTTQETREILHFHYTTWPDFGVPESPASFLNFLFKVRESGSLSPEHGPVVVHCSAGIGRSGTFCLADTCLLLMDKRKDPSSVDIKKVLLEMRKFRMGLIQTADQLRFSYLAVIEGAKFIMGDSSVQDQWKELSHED
Description: p-NPP phosphatase assay with purified recombinant PTP1B catalytic domain, absorbance at […] nm. The experiment is classed as biochemical.

Each structure is given as a SMILES string.

The IC50 is the concentration that inhibits the measured activity by half. On to `O=c1c(O)c(-c2ccc(O)cc2)oc2cc(O)cc(O)c12` [kaempferol], for which the IC50 is 279 µM.
